Measured values taken from patent US20220008350A1, “PROCESS FOR ENGINEERING TARGETED NANOPARTICLES” (University of North Texas Health Science Center, priority 2018, published 2022).

Key:
[1] = system: integrin αVβ3 surface expression in C4-2B prostate cancer cells; assay: αVβ3 protein stimulation and verification (immunocytochemistry); assay type: cell-based, human; conditions: C4-2B cells, 200 ng/mL CXCL12, after first hour, constant for 12 hours
Method: αVβ3 Protein Stimulation and Verification. C4-2B cells were grown on glass coverslips in a six-well dish and then stimulated to express αVβ3 by treatment with 200 ng/mL of recombinant human CXCL12 (R&D Systems, Minneapolis, Minn.) for 1, 6, or 12 hours at 37° C. After cells were stimulated they were rinsed with PBS, fixed with 4% formaldehyde (Affymetrix) for 10 min at room temperature, washed twice with PBS, and blocked for 1 hour with 1% BSA in PBS. Next cells were incubated for 4 hours with a 1:100 dilution of anti-integrin αVβ3 antibody, clone LM609 (Millipore). Incubation was followed by three washes with PBS, and then incubated for 45 minutes with a 1:200 dilution of the goat anti-mouse IgG (H+L) secondary antibody, Alexa Fluor 488 conjugate (Life Technologies). Cells were washed twice more and mounted on slides with Prolong Gold antifade reagent with DAPI (Invitrogen). Fluorescent images were taken with Olympus AX70 Florescent Microscope.

[2] = molecular target: ATP-dependent drug efflux pump glycoprotein (P-gp) (Homo sapiens, UniProt P08183); conditions: cited from earlier work
[3] = In vivo bone retention (intraosseous injection); conditions: injected into mouse tibia, live animal imaging up to 72 hours, NIR dye
Method: In vivo bone retention. […] Animals were imaged initially and at time points: 1 hour, 24 hours, 48 hours, and 72 hours to assess for NIR signal on IVIS animal imager. Fluorescent signal was quantified at each time and compared to the signal for the initial time point of each mouse to give the percentage of retained nanoparticle in the bone. Additionally, half-life of nanoparticle signal in the bone was calculated with the following equation: N(t)=N0(½)^(t/t1/2).

Chain of ATP-dependent drug efflux pump glycoprotein (P-gp) (P08183 whole entry): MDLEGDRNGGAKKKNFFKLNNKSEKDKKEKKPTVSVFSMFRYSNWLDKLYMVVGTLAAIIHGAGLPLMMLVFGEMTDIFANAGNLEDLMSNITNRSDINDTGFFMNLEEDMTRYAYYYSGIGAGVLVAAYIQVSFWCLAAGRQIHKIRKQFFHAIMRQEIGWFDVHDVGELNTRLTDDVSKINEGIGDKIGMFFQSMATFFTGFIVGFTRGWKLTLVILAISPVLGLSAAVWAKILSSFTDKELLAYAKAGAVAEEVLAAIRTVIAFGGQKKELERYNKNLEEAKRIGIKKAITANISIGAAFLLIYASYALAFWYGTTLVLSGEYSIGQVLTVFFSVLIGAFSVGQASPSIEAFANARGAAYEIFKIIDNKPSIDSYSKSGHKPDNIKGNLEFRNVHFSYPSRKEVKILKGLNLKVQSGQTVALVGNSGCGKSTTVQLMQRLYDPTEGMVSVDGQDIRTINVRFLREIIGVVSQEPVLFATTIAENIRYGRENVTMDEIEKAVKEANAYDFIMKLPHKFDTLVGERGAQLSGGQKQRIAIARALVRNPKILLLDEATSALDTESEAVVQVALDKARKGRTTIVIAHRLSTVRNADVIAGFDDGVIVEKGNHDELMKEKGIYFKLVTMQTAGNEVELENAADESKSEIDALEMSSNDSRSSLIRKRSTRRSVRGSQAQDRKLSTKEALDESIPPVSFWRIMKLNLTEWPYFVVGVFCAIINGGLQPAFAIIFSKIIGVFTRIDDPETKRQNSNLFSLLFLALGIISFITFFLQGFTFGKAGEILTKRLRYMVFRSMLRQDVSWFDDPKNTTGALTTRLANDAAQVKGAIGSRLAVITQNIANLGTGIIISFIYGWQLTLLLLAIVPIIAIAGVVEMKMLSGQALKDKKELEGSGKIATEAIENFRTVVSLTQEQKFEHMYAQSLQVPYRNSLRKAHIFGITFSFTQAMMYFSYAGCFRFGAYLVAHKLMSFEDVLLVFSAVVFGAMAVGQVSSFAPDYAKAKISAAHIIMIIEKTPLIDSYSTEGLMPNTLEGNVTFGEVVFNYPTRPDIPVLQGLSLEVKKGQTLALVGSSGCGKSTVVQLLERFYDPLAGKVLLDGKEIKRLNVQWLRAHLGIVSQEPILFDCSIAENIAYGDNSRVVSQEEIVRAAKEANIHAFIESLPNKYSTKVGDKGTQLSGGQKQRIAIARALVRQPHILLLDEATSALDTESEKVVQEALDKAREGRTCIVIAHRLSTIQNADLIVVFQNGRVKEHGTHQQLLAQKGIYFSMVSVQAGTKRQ

C-X-C motif chemokine ligand 12 [CXCL12]
increase in expression level of αVβ3 [1]: approximately 2 fold

CO[C@H]1C(=O)[C@]2(C)[C@@H](OC)C[C@H]3OC[C@@]3(OC(C)=O)[C@H]2[C@H](OC(=O)c2ccccc2)[C@]2(O)C[C@H](OC(=O)[C@H](O)[C@@H](NC(=O)OC(C)(C)C)c3ccccc3)C(C)=C1C2(C)C [Cabazitaxel]
substrate affinity for P-gp [2]: lower substrate affinity

CCCN1C(=CC=C2CCCC(C=CC3=[N+](CCC)c4ccccc4C3(C)C)=C2Cl)C(C)(C)c2ccccc21.[I-] [dye, IR-780 dye]
retention and half-life in the bone [3]: equivalent regarding retention in the bone
